Experimental data reported in PMC8151276, “An Integrated Approach toward NanoBRET Tracers for Analysis of GPCR Ligand Engagement” (Molecules, 2021).

Legend:
Type in all cases: binding
GABBR2 = molecular target: T1, GABBR2 (Homo sapiens, UniProt O75899); assay: NanoBRET screen HiBiT-GABBR2 in HEK293
T1 construct: purchased Promega (in-house HiBiT-GPCR construct library, NanoBRET)
T1 sequence (O75899 42-941): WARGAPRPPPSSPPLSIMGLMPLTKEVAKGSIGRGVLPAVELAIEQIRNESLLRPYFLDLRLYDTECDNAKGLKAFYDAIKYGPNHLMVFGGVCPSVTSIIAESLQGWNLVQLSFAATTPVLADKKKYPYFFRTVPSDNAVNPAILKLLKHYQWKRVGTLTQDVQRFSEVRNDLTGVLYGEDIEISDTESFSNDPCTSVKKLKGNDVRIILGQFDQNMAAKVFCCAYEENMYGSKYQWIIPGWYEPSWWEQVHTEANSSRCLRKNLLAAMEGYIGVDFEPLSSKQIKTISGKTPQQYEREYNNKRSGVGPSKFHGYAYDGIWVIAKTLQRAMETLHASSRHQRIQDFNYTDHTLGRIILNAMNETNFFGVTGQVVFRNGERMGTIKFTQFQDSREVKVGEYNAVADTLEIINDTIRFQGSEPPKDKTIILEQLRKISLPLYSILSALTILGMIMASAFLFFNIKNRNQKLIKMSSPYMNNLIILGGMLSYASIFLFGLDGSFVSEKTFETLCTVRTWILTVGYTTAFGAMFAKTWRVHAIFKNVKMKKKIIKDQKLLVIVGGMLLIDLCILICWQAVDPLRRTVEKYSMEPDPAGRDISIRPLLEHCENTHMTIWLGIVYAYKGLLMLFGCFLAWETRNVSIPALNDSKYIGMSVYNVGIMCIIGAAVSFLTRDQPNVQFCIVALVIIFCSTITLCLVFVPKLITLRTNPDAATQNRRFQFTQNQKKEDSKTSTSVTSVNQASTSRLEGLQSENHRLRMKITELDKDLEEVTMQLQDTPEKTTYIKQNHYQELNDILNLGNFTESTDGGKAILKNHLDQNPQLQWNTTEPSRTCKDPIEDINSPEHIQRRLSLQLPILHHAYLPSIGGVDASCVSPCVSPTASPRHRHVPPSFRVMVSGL
Protocol: (§1) Each tracer candidate was screened across the entire library of HiBiT-GPCR constructs using NanoBRET as the detection modality. As depicted in Figure 4A, the specificity of interactions was evaluated through decrease in BRET due to competitive displacement of a bound tracer by excess parental compound. Each tracer was analyzed for binding to each HiBiT-GPCR fusion in the absence and in the presence of competing parental compound. Briefly, HEK293 cells were transfected with HiBiT-GPCR constructs diluted into promoterless DNA to reduce expression and maximize translocation to the cell surface. Each tracer candidate was then screened at concentrations of 1 μM and 0.1 μM across cells expressing these fusions. Cells were treated for 1.5 h with tracer either alone or in the presence of 20 μM competing parental compound (i.e., control). BRET was measured upon addition of purified LgBiT and subsequent complementation with HiBiT genetically fused to a GPCR. The specificity of interactions was assessed through a decrease in BRET signal due to competitive displacement of the bound tracer. To further gauge the robustness of these interactions, the fold response over the control (i.e., BRETtracer/BRETcontrol) was calculated. We chose a 1.5-fold response, which translates to ≥7-fold signal over noise as the minimal threshold required to score an interaction as positive. […]. Below we highlight the screening results obtained for our exemplary fluorescent tracers based on Clozapine, Amitriptyline and AZD1283.
(§2) HiBiT-GPCR DNA constructs were diluted in 10 mM Tris pH 8 to a final concentration of 0.01 μg/μL, arrayed in 96-well plates and stored at −20 °C. For transfection, HEK293 cells were suspended in Opti-MEM (without phenol red) supplemented with 2% fetal bovine serum (Seradigm) and 100 units/mL penicillin–streptomycin (Gibco) at a final concentration of 220,000 cells/mL and dispensed into white 96-well plates at 90 μL/well. Subsequent transfections and screens were carried using an Agilent Bravo Automated Liquid Handling Platform. First, the 96-well HiBiT DNA arrays were diluted 25-fold in Opti-MEM (without serum or phenol red) to a final concentration of 0.0004 μg/μL and 20 μL of the diluted DNAs were transferred into new 96-well plates. Next, promoterless carrier DNA (1 μg/μL) was diluted 25-fold (0.04 μg/μL) and then dispensed into the diluted arrays at 20 μL/well. Following brief mixing, Viafect transfection reagent (Promega) diluted 16-fold into Opti-MEM was dispensed into the plates at 40 μL/well. After mixing by pipetting, plates were incubated for 10 min on the pipetting station deck. The DNA-transfection reagent complexes were then added to plates containing cells. To facilitate the screen, 10 μL of DNA-transfection reagent complexes were added in duplicates to the top 4 and bottom 4 rows, resulting in two identical 48-well arrays per plate. Plates with transfected cells were incubated for 18–20 h at 37 °C/5% CO2. A screen of each tracer across the entire library using two different concentrations requires duplicate plates of transfected cells. Depending on the number of tracers being screened, transfections can be scaled up using the same ratios. The next day, for each tracer, four 20× screening solutions in tracer dilution buffer (Promega) were prepared: two duplicates at final concentration of 20 μM and two duplicates at a final concentration of 2 μM. A competing unmodified compound was added to one of each duplicate at a final concentration of 400 μM. The four resulting solutions were diluted 4-fold in Opti-MEM without serum or phenol red to generate 5× solutions (5 µM and 0.5 µM tracer +/− 100 μM competing compound). To screen the library, a BioTek MultiFlo FX liquid dispenser was used to dispense 22.5 µL of tracer solution to the top 4 rows and 22.5 µL tracer + competing compound solution to the 4 bottom rows. Plates were briefly mixed on an orbital shaker and incubated for 1.5 h at room temperature. […]

C5AR2 = molecular target: T2, C5AR2 (Homo sapiens, UniProt Q9P296); assay: NanoBRET screen HiBiT-C5AR2 in HEK293; settings: C5AR2
T2 construct: purchased Promega (in-house HiBiT-GPCR construct library, NanoBRET)
Protocol: as §1, §2

SSTR4 = molecular target: T3, SSTR4 (Homo sapiens, UniProt P31391); assay: NanoBRET screen HiBiT-SSTR4 in HEK293
T3 construct: purchased Promega (in-house HiBiT-GPCR construct library, NanoBRET)
Protocol: as §1, §2

T2 sequence (Q9P296 whole entry): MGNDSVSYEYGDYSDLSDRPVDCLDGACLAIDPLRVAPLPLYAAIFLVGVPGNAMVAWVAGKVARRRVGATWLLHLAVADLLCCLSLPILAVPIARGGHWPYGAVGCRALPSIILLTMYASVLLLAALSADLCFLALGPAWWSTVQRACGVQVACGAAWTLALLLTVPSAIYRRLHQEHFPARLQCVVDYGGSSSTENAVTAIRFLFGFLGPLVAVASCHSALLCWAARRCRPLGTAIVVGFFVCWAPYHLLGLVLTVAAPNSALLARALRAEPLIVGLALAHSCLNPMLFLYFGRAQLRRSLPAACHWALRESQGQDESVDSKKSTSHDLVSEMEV
T3 sequence (P31391 whole entry): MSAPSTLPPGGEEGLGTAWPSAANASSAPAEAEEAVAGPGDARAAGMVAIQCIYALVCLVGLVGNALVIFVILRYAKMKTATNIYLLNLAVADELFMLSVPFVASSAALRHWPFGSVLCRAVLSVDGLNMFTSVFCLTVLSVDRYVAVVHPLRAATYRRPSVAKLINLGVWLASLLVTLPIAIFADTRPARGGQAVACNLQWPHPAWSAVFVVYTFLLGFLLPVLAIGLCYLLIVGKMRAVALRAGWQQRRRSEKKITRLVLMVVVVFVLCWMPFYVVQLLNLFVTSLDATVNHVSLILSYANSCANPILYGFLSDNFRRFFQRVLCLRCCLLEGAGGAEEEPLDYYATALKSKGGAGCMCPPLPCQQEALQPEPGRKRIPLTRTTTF

SMILES: CN1CCN(C2=Nc3cc(Cl)ccc3Nc3ccc(CNC(=O)CCOCCOCCOCCOCCNC(=O)CCc4ccc5n4[B-](F)(F)[N+]4=C(c6ccc[nH]6)C=CC4=C5)cc32)CC1 [Clozapine-b-2-NB590]
- NanoBRET Fold Response (GABBR2; GABBR2, 0.1μM tracer): 0.96
- NanoBRET Fold Response (GABBR2; GABBR2, 1μM tracer): 1.07
- NanoBRET Fold Response (C5AR2; 0.1μM tracer): 0.99
- NanoBRET Fold Response (C5AR2; 1μM tracer): 1.01
- NanoBRET Fold Response (SSTR4; SSTR4, 0.1μM tracer): 0.97
- NanoBRET Fold Response (SSTR4; SSTR4, 1μM tracer): 1.02

SMILES: CN(C)CCC=C1c2ccccc2CCc2ccc(C(=O)NCCNC(=O)CCOCCOCCOCCOCCNC(=O)CCc3ccc4n3[B-](F)(F)[N+]3=C(c5ccc[nH]5)C=CC3=C4)cc21 [Amitriptyline-b-2-NB590]
- NanoBRET Fold Response (GABBR2; tracer at 0.1μM, listed as amitriptyline-b-2-NB590): 1.13
- NanoBRET Fold Response (GABBR2; tracer at 1μM, listed as amitriptyline-b-2-NB590): 1.30
- NanoBRET Fold Response (SSTR4; tracer at 0.1μM): 1.16
- NanoBRET Fold Response (SSTR4; tracer at 1μM): 0.99

SMILES: CCOC(=O)c1cc(C#N)c(N2CCC(C(=O)NS(=O)(=O)Cc3ccccc3/C=C/C(=O)NCCNC(=O)CCc3ccc4n3[B-](F)(F)[N+]3=C(c5ccc[nH]5)C=CC3=C4)CC2)nc1C [AZD1283-1-NB590]
- NanoBRET Fold Response (GABBR2; GABBR2, 0.1μM): 0.89
- NanoBRET Fold Response (GABBR2; GABBR2, 1μM): 1.01
- NanoBRET Fold Response (C5AR2; 0.1μM): 0.97
- NanoBRET Fold Response (C5AR2; 1μM): 1.12
- NanoBRET Fold Response (SSTR4; SSTR4, 0.1μM): 1.10
- NanoBRET Fold Response (SSTR4; SSTR4, 1μM): 1.07

SMILES: CC(C)N(CC[C@H](c1ccccc1)c1cc(CCNC(=O)CCOCCOCCOCCOCCNC(=O)CCc2ccc3n2[B-](F)(F)[N+]2=C(c4ccc[nH]4)C=CC2=C3)ccc1O)C(C)C [Tolterodine-2-NB590]
- NanoBRET Fold Response (GABBR2; GABBR2, tracer 0.1μM): 1.15
- NanoBRET Fold Response (GABBR2; GABBR2, tracer 1μM): 1.02
- NanoBRET Fold Response (C5AR2; tracer 0.1μM): 0.98
- NanoBRET Fold Response (C5AR2; tracer 1μM): 0.92
- NanoBRET Fold Response (SSTR4; SSTR4, tracer 0.1μM): 0.97
- NanoBRET Fold Response (SSTR4; SSTR4, tracer 1μM): 1.14

SMILES: CC(C)N(CC[C@H](c1ccccc1)c1cc(CCNC(=O)c2ccc(CNC(=O)CCc3ccc4n3[B-](F)(F)[N+]3=C(c5ccc[nH]5)C=CC3=C4)cc2)ccc1O)C(C)C [Tolterodine-BZ-NB590]
- NanoBRET Fold Response (GABBR2; GABBR2, tracer 0.1μM): 0.87
- NanoBRET Fold Response (GABBR2; GABBR2, tracer 1μM): 0.71
- NanoBRET Fold Response (C5AR2; tracer 0.1μM): 1.05
- NanoBRET Fold Response (C5AR2; tracer 1μM): 1.08
- NanoBRET Fold Response (SSTR4; SSTR4, tracer 0.1μM): 0.99
- NanoBRET Fold Response (SSTR4; SSTR4, tracer 1μM): 0.93

SMILES: O=C(CCOCCOCCOCCOCCNC(=O)CCc1ccc2n1[B-](F)(F)[N+]1=C(c3ccc[nH]3)C=CC1=C2)NCCCN1CCN(C2=Nc3ccccc3Oc3ccc(Cl)cc32)CC1 [Loxapine-a-2-NB590]
- NanoBRET Fold Response (GABBR2; GABBR2, tracer 0.1μM): 1.03
- NanoBRET Fold Response (GABBR2; GABBR2, tracer 1μM): 0.85
- NanoBRET Fold Response (C5AR2; tracer 0.1μM): 0.95
- NanoBRET Fold Response (C5AR2; tracer 1μM): 1.07
- NanoBRET Fold Response (SSTR4; SSTR4, tracer 0.1μM): 1.00
- NanoBRET Fold Response (SSTR4; SSTR4, tracer 1μM): 1.09

SMILES: CN1CCN(C2=Nc3cc(Cl)ccc3N(CC(=O)NCCOCCOCCOCCOCCNC(=O)CCc3ccc4n3[B-](F)(F)[N+]3=C(c5ccc[nH]5)C=CC3=C4)c3ccccc32)CC1 [Clozapine-c-2-NB590]
- NanoBRET Fold Response (GABBR2; GABBR2, 0.1μM tracer): 0.99
- NanoBRET Fold Response (GABBR2; GABBR2, 1μM tracer): 1.02
- NanoBRET Fold Response (C5AR2; 0.1μM tracer): 0.99
- NanoBRET Fold Response (C5AR2; 1μM tracer): 1.00
- NanoBRET Fold Response (SSTR4; SSTR4, 0.1μM tracer): 1.03
- NanoBRET Fold Response (SSTR4; SSTR4, 1μM tracer): 1.00
